What was measured:
[1] = Rat brain penetration study; type: in vivo; conditions: brain/plasma, oral (gavage) 3 mg/kg, male Wistar rats, brain concentrations below LLOQ taken as zero, read-out: Single dose Brain Penetration (Cb/Cp)
Description: Male Wistar rats (225±25 g) were used as experimental animals. Three animals were housed in each cage. Animals were given water and food ad libitum throughout the experiment and maintained on a 12 h light/dark cycle.
Brain penetration was determined in discrete manner in rats. One day prior to dosing day, male Wistar rats were acclimatized. After acclimatization, the rats were grouped according to their weight. In each group, 3 animals were kept in individual cages and allowed free access to food and water. At each time point (0.5, 1, and 2 h) n=3 animals were used.
The compounds of formula (I) were suitably preformulated and administered orally at (free base equivalent) 3 mg/kg. Blood samples were collected via, cardiac puncture by using isoflurane anesthesia. The animals were sacrificed to collect brain tissue. Plasma was separated and brain samples were homogenized and stored frozen at −20° C. until analysis.
The concentrations of the compounds of formula (I) were quantified in plasma and brain homogenate by qualified LC-MS/MS method using a suitable extraction technique. The compounds of formula (I) were quantified in the calibration range of 1-2000 ng/mL in plasma and brain homogenate. Study samples were analyzed using calibration samples in the batch and quality control samples spread across the batch. Extent of brain-plasma ratio was calculated (Cb/Cp). Brain concentrations were found below LLOQ and a value of zero was considered for calculation purposes.

gastric emptying = assay: Effect on gastric emptying in Beagle dogs (clonidine model of gastroparesis); type: in vivo; conditions: 3 and 10 mg/kg oral
Description: Six beagle dogs were used for the study in a crossover manner such that all 6 dogs received all the treatments. Each dog was placed in an individual cage after overnight fasting and water removed. To provide a model of gastroparesis, clonidine (α2 adrenergic agonist) at a dose of 10 μg/kg was injected subcutaneously 30 min before test meal administration.
Dogs were orally administered test compound of example 2 at 1, 3 and 10 mg/kg or vehicle or cisapride at 10 mg/kg immediately before the administration of clonidine. The test meal (10 mL/kg), made up of commercially available semi-solid food with 10 mg/kg of acetaminophen (APAP), was provided 30 min after clonidine injection. Blood samples were collected from cephalic vein at 0, 0.25, 0.5, 0.75, 1.0, 1.25, 1.5 & 2.0 h after test meal administration and then plasma was separated by centrifugation. Plasma concentrations of APAP were determined by in-house methods using LC-MS/MS.

[2] = target: hERG tail currents in HEK293-hERG cells (Homo sapiens (Human), UniProt Q12809); assay: hERG patch-clamp assay; type: cell-based; conditions: whole cell patch-clamp, tail current at -40 mV, read-out: half maximal inhibitory concentration of hERG tail currents (IC50)
Chain of hERG tail currents in HEK293-hERG cells (Q12809 whole entry): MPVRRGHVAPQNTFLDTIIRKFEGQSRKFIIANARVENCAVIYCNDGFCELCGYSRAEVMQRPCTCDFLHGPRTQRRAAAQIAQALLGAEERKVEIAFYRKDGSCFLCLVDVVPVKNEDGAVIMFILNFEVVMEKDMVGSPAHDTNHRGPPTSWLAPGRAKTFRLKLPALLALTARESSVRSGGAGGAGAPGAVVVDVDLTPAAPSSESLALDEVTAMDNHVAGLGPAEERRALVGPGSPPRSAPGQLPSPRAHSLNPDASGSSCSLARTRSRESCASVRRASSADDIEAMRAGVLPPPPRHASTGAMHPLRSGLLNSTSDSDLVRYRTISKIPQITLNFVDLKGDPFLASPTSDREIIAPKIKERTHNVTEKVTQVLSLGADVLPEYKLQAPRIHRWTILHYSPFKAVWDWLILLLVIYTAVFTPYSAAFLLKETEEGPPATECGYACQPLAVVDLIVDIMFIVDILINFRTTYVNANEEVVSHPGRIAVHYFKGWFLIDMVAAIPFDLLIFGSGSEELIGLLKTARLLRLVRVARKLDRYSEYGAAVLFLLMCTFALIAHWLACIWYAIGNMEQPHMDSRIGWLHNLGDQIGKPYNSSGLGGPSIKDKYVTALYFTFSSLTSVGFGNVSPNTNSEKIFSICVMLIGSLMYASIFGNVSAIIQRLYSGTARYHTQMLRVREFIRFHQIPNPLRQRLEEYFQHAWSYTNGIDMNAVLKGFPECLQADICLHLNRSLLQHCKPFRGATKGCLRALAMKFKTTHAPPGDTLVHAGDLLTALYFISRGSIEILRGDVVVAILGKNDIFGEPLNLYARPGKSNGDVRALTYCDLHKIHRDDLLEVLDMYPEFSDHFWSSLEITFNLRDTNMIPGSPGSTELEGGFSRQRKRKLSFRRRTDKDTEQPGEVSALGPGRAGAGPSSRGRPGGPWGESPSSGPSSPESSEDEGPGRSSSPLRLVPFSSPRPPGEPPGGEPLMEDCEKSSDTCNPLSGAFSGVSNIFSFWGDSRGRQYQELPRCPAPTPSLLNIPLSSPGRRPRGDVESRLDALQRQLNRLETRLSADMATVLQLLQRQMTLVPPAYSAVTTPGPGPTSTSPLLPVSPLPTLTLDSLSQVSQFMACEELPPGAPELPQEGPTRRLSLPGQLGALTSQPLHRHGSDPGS
Description: The HEK293-hERG cells for patch-clamp assay were cultured in DMEM: Ham's F12 (1:1 ratio) with 10% fetal bovine serum containing 0.5 mg/ml of selective antibiotic, G-418 sulfate (Calbiochem) and 0.1% penicillin and streptomycin (Thermofisher, MA, USA) in T-75 flask. Cells were harvested at 70-80% confluency by washing with Hanks' Balanced Salt Solution lacking Mg^2+ and Ca^2+ ions and subsequent addition of accumax (2.5 mL) (Sigma Aldrich, MO, USA) and incubated the flask at 5% CO2 and 37° C. until cells start sliding of the surface. After cells have completely detached from the surface about 10 mL of complete media without selective antibiotic was added and pipetted to detach the cell clumps. Additional 7.5 mL of complete media was added to collect the residual cells in the flask and cell suspension was incubated at 5% CO2 and 37° C. for 30 min. […] The peak current is measured at −40 mV tail currents using Patchliner instrument. The I-V pulse protocol was pulsed every 10 s and online analysis were recorded by substituting the leak current from the peak current and IC50 values were calculated from IGOR PRO software (WaveMetrics, Inc. Portland, OR, USA).

[3] = test system: intestinal (jejunum) EMG activity; assay: Intestinal myoelectrical activity in male Wistar rats; type: in vivo; conditions: p.o.
Description: Method: The telemetry transmitter (F40-EET; DSI, MA, USA) was implanted subcutaneously in the rat and the spring electrodes were implanted into the walls of intestine (jejunum) under isoflurane anesthesia. After two weeks of surgical recovery, animals were fasted for 14 h and transferred to recording cages. The transmitter was switched on using magnetic switch and baseline intestinal EMG activity was recorded for 3 h. Rats were treated with vehicle, test compound of example 2 (10 or 30 mg/kg, p.o.) or positive control, prucalopride (10 mg/kg, p.o.) was administered and EMG signals were recorded for additional 3 h using Ponemah software (DSI, MA, USA). Animals were given access to only water during study. The recorded EMG signal was filtered using 20-50 Hz band filter and spiking activity was measured in bouts of 30 min using NeuroScore software (DSI, MA, USA).

CC(C)n1c(=O)c(C(=O)NC2CC3CCC(C2)N3C[C@@H](O)CN(C)S(C)(=O)=O)cc2cccn21.O=C(O)C(O)C(O)C(=O)O (single isomer, unassigned) [Example 2]
Kp [1]: 0 | gastric emptying (gastric emptying; clonidine-treated (10 μg/kg s.c.) beagle dogs, plasma APAP): enhanced the gastric emptying in dose dependent manner | gastric motor activity (gastric emptying; clonidine-treated beagle dogs): increased gastric motor activity | IC50 [2]: > 10 µM | increase in myoelectric activity ([3]; 30 mg/kg, jejunum EMG spiking): 97±31% | myoelectric activity ([3]; 10 or 30 mg/kg): dose-dependent increase in myoelectric activity

Reference: US20250019386A1, “PYRROLO[1,2-b]-2-PYRIDAZINONE COMPOUNDS AS 5-HT4 RECEPTOR AGONISTS” (SUVEN LIFE SCIENCES LIMITED, priority 2022, published 2025)
